The values that follow come from paper PMC2672171, “In Vivo Delta Opioid Receptor Internalization Controls Behavioral Effects of Agonists” (PLoS ONE, 2009).

Each structure is given as a SMILES string.

In test [1] the target is T1, DOR-eGFP (delta opioid receptor-eGFP) (Mus musculus, UniProt P32300).
T1 construct: gene Oprd1; Full-length mouse delta receptor with C-terminal eGFP, knocked in at the native gene (exon 3, 5' of the stop codon); whole brain membranes of knock-in mice
In words: […]GTPgammaS binding, whole brain membranes. The test is classed as biochemical. The conditions noted are these: agonist; 30 µM GDP, 0.1 nM [35S]GTPgammaS, 3 mM MgCl2, 100 mM NaCl, pH 7.4, 1 h, 25 °C; read-out: G protein coupling ([^35S]GTPγS binding) / EC50 (nM) / Striatum / E1/2 (min). On the technique in general: GTPγS resists hydrolysis and so accumulates on activated G proteins.

Test [2] deals with T1, DOR-eGFP (delta opioid receptor-eGFP). Nature of the test: [3H]naltrindole competition binding, whole brain membranes. The conditions noted are these: 1 nM [3H]naltrindole, 1 h, 25 °C; read-out: Affinity (Competition Binding) / Ki (nM) / Concentration. An excerpt: [3H]naltrindole competition binding, whole brain membranes on DOR-eGFP (delta opioid receptor-eGFP)

T1 sequence (P32300 whole entry): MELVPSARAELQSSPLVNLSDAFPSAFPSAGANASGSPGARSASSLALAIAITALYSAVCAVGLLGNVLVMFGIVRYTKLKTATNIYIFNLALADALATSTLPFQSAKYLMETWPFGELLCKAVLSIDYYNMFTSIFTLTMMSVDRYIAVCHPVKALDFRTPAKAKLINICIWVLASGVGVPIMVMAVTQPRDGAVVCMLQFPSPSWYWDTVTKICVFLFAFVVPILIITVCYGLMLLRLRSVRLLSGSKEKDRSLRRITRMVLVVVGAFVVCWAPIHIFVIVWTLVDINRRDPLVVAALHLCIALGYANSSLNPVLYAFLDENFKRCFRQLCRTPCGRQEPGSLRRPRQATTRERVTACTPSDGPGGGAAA

For the compound `CCN(CC)C(=O)c1ccc(C(=C2CCNCC2)c2ccccc2)cc1` [ARM390, N,N-diethyl-4-(phenyl-piperidin-4-ylidenemethyl)-benzamide], in test [1], the EC50 came out at 169 ± 9.5 nM. Besides, the Ki in test [2] came out at 2.3 ± 0.3 nM.
